ChEMBL document CHEMBL1155301, “Optimization of the aminopyridopyrazinones class of PDE5 inhibitors: discovery of 3-[(trans-4-hydroxycyclohexyl)amino]-7-(6-methoxypyridin-3-yl)-1-(2-propoxyethyl)pyrido[3,4-b]pyrazin-2(1H)-one” (Bioorg Med Chem Lett, 2009)
pIC50: −log10 of the molar value. Values joined by “and” are separate entries in the source; they are usually repeats but may differ in a detail not shown here. Equal entries are not always repeated. Active and inactive are the calls of the source. The calls are words filed in the database; no cut-off is given here.

Assays:
[1] = molecular target: 3',5'-cyclic-AMP phosphodiesterase 7B (Homo sapiens, UniProt Q9NP56); assay: Inhibition of PDE7B
3',5'-cyclic-AMP phosphodiesterase 7B, sequence (Q9NP56 whole entry): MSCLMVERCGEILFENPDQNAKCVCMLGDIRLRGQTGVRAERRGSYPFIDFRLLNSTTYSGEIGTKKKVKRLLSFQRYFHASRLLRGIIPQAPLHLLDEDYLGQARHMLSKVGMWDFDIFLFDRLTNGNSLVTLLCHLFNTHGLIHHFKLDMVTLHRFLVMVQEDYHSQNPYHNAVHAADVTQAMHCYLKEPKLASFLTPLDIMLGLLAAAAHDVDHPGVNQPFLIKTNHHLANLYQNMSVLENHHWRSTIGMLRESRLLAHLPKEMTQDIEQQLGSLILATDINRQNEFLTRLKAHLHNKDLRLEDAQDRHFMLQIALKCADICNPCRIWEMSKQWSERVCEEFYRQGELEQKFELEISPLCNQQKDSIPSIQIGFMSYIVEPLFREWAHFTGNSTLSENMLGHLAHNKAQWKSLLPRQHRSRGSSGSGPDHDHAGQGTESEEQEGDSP

[2] = Clearance in rat; format: ADME, organism-based; conditions: in vivo
[3] = molecular target: cGMP-dependent 3',5'-cyclic phosphodiesterase (Homo sapiens, UniProt O00408); assay: Inhibition of PDE2
cGMP-dependent 3',5'-cyclic phosphodiesterase, sequence (O00408 whole entry): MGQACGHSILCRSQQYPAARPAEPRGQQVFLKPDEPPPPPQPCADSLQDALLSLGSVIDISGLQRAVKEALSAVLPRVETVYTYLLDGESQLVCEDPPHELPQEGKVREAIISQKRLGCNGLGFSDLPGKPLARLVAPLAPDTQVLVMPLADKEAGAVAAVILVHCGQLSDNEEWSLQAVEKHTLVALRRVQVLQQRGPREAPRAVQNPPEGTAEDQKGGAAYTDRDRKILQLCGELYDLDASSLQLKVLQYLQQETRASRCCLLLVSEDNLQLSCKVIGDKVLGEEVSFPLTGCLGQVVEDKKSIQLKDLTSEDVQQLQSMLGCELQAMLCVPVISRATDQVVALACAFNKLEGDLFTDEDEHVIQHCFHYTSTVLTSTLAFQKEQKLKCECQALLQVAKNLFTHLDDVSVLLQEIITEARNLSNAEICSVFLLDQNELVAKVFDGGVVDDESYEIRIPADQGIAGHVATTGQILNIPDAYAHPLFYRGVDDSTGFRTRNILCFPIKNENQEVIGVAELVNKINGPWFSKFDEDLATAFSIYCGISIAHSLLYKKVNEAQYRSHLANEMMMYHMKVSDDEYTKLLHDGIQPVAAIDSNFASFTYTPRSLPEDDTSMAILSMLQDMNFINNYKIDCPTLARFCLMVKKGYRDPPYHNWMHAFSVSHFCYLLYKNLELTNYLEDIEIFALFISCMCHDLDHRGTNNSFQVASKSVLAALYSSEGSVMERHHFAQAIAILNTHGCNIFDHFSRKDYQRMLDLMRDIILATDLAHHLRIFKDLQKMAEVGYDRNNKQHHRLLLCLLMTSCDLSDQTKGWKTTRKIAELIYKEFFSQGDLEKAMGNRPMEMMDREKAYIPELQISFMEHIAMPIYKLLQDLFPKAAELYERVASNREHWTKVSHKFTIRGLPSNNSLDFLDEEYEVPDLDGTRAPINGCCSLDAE

[4] = molecular target: 3',5'-cyclic-AMP phosphodiesterase 4A (Homo sapiens, UniProt P27815); assay: Inhibition of PDE4A
[5] = molecular target: cGMP-inhibited 3',5'-cyclic phosphodiesterase 3B (Homo sapiens, UniProt Q13370); assay: Inhibition of PDE3B
[6] = Half life in rat; format: ADME, organism-based; conditions: in vivo
[7] = molecular target: 3',5'-cyclic-AMP phosphodiesterase 4B (Homo sapiens, UniProt Q07343); assay: Inhibition of PDE4B
3',5'-cyclic-AMP phosphodiesterase 4B, sequence (Q07343 whole entry): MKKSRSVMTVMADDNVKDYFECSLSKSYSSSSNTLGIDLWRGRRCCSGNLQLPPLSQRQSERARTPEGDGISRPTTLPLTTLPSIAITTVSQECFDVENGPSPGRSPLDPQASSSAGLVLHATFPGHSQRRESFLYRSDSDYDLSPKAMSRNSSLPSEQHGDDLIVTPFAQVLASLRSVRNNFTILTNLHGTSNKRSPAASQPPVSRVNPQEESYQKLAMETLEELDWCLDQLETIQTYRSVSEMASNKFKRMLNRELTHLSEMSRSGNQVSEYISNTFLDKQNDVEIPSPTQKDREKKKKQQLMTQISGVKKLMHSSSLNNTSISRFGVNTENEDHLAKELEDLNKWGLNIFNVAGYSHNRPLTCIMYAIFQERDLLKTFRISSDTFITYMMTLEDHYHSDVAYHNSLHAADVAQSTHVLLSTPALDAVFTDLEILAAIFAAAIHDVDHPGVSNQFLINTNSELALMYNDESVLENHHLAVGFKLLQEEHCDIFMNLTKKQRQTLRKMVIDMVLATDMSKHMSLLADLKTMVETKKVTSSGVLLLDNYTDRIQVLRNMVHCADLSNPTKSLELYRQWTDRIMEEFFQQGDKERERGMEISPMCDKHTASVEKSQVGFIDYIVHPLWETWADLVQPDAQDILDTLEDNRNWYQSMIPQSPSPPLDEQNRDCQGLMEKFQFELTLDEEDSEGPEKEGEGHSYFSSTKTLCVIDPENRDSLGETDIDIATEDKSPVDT

[8] = molecular target: Rod cGMP-specific 3',5'-cyclic phosphodiesterase subunit alpha (Homo sapiens, UniProt P16499); assay: Inhibition of PDE6
[9] = molecular target: cGMP-inhibited 3',5'-cyclic phosphodiesterase 3A (Homo sapiens, UniProt Q14432); assay: Inhibition of PDE3A
cGMP-inhibited 3',5'-cyclic phosphodiesterase 3A, sequence (Q14432 whole entry): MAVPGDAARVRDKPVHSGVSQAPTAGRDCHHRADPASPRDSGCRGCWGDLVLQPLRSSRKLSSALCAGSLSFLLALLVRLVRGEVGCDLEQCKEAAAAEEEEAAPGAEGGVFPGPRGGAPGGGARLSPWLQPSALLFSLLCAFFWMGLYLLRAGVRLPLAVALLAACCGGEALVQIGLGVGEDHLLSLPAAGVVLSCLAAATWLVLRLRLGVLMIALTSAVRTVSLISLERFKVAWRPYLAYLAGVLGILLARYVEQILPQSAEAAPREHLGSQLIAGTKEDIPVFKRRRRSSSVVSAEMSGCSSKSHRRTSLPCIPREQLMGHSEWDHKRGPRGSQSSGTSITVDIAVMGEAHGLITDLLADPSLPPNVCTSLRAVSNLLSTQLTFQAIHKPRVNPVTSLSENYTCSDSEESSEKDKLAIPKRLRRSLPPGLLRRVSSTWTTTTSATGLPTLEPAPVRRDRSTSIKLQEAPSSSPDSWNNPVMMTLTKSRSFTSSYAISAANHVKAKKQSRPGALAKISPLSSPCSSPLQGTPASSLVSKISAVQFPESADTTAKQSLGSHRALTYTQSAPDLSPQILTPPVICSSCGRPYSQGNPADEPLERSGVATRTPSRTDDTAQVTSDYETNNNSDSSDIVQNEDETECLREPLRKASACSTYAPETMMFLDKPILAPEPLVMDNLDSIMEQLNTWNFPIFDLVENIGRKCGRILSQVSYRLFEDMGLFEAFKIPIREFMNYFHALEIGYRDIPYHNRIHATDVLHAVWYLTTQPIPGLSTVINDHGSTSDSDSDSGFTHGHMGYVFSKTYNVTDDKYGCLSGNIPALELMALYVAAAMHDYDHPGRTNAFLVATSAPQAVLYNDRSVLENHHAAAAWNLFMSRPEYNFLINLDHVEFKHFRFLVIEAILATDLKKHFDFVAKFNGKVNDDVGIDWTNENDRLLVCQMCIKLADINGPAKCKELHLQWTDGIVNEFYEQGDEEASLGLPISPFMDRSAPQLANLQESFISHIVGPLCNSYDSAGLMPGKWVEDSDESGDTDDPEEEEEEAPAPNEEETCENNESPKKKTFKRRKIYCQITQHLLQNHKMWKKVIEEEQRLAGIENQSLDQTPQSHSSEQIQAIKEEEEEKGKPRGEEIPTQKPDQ

[10] = molecular target: Dual 3',5'-cyclic-AMP and -GMP phosphodiesterase 11A (Homo sapiens, UniProt Q9HCR9); assay: Inhibition of PDE11
[11] = molecular target: High affinity 3',5'-cyclic-AMP phosphodiesterase 7A (Homo sapiens, UniProt Q13946); assay: Inhibition of PDE7A
[12] = molecular target: High affinity cAMP-specific and IBMX-insensitive 3',5'-cyclic phosphodiesterase 8A (Homo sapiens, UniProt O60658); assay: Inhibition of PDE8A
High affinity cAMP-specific and IBMX-insensitive 3',5'-cyclic phosphodiesterase 8A, sequence (O60658 whole entry): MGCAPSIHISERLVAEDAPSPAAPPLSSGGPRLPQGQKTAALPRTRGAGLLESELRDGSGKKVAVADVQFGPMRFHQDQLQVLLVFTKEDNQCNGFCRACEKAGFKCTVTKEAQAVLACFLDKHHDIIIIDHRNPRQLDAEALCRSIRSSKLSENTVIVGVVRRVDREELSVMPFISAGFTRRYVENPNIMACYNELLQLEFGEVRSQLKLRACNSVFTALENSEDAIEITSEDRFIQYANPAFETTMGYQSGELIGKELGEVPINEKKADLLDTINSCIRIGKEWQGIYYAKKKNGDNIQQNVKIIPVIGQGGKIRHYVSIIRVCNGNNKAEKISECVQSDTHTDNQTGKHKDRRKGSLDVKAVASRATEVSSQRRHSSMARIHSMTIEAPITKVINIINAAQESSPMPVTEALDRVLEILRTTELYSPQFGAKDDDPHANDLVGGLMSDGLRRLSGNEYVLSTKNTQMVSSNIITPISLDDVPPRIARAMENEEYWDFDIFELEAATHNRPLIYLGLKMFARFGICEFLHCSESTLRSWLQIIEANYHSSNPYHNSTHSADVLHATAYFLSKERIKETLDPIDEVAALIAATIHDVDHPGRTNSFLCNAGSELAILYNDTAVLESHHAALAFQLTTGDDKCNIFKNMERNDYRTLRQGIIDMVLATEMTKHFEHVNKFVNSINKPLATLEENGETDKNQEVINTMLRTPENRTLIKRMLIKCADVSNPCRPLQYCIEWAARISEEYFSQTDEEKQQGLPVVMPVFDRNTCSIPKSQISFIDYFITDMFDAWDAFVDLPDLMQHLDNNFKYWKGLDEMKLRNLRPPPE

[13] = molecular target: Dual specificity calcium/calmodulin-dependent 3',5'-cyclic nucleotide phosphodiesterase 1A (Homo sapiens, UniProt P54750); assay: Inhibition of PDE1A
[14] = system: Rattus norvegicus; assay: Antihypertensive activity against telemeterized rat at 10 mg/kg, po; format: functional, organism-based; design: dose 10 mg/kg
[15] = molecular target: 3',5'-cyclic-AMP phosphodiesterase 4C (Homo sapiens, UniProt Q08493); assay: Inhibition of PDE4C
[16] = molecular target: Dual specificity calcium/calmodulin-dependent 3',5'-cyclic nucleotide phosphodiesterase 1B (Homo sapiens, UniProt Q01064); assay: Inhibition of PDE1B
[17] = molecular target: High affinity cGMP-specific 3',5'-cyclic phosphodiesterase 9A (Homo sapiens, UniProt O76083); assay: Inhibition of PDE9
[18] = molecular target: Dual specificity calcium/calmodulin-dependent 3',5'-cyclic nucleotide phosphodiesterase 1C (Homo sapiens, UniProt Q14123); assay: Inhibition of PDE1C
Dual specificity calcium/calmodulin-dependent 3',5'-cyclic nucleotide phosphodiesterase 1C, sequence (Q14123 whole entry): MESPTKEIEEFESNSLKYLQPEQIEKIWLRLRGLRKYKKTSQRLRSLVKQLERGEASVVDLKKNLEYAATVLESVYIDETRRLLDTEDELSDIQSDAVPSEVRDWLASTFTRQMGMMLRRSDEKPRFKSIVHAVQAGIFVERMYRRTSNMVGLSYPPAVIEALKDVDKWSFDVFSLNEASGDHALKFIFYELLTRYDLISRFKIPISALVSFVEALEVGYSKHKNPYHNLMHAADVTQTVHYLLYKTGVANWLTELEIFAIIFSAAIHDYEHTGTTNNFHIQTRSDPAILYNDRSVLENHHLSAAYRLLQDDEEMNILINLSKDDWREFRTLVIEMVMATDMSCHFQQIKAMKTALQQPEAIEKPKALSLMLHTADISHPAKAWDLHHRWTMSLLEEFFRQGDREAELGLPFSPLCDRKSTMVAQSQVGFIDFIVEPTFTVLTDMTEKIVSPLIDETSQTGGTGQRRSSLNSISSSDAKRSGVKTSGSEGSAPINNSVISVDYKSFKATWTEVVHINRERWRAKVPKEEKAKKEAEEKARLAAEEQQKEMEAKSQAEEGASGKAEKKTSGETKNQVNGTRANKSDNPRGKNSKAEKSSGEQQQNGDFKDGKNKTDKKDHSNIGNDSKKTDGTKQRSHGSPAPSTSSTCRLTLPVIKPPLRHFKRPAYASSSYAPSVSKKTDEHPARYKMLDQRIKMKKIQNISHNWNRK

[19] = molecular target: High affinity cAMP-specific and IBMX-insensitive 3',5'-cyclic phosphodiesterase 8B (Homo sapiens, UniProt O95263); assay: Inhibition of PDE8B
[20] = Oral bioavailability in rat at 2 mg/kg; format: ADME, organism-based; conditions: in vivo
[21] = Volume of distribution in rat at 2 mg/kg, iv and 2 mg/kg, po; format: ADME, organism-based; conditions: in vivo
[22] = Volume of distribution in dog at 2 mg/kg, iv and 2 mg/kg, po; format: ADME, organism-based, Canis lupus familiaris; conditions: in vivo
[23] = species: Rattus norvegicus; assay: Unbound clearance in rat; format: ADME, organism-based; conditions: in vivo
[24] = Clearance in rat at 2 mg/kg, po and 2 mg/kg, iv; format: ADME, organism-based; conditions: in vivo
[25] = Oral bioavailability in dog at 2 mg/kg; format: ADME, organism-based, Canis lupus familiaris; conditions: in vivo
[26] = Clearance in dog at 2 mg/kg, po and 2 mg/kg, iv; format: ADME, organism-based, Canis lupus familiaris; conditions: in vivo
[27] = Half life in dog at 2 mg/kg, po and 2 mg/kg, iv; format: ADME, organism-based, Canis lupus familiaris; conditions: in vivo
[28] = Half life in rat at 2 mg/kg, po and 2 mg/kg, iv; format: ADME, organism-based; conditions: in vivo
[29] = molecular target: 3',5'-cyclic-AMP phosphodiesterase 4D (Homo sapiens, UniProt Q08499)
[30] = Permeability from apical to basolateral side in human Caco-2 cells; format: ADME, cell-based; conditions: read-out: permeability
[31] = species: Rattus norvegicus; assay: Unbound volume of distribution in rat; format: ADME, organism-based; conditions: in vivo
[32] = molecular target: cGMP-specific 3',5'-cyclic phosphodiesterase (Homo sapiens, UniProt O76074); assay: Inhibition of PDE5

SMILES | pIC50 [1] | pIC50 [3] | pIC50 [4] | pIC50 [5] | pIC50 [7] | pIC50 [8] | pIC50 [9] | pIC50 [10] | pIC50 [11] | pIC50 [12] | pIC50 [13] | Activity [14] | pIC50 [15] | pIC50 [16] | pIC50 [17] | pIC50 [18] | pIC50 [19] | other results
CCCOCCn1c(=O)c(NCCN2CCOCC2)nc2cnc(-c3ccc(OC)nc3)cc21 | < 5.70 | < 5.70 | < 5.70 | < 5.70 | < 5.70 | 7.95 | < 5.70 | 6.46 | < 5.70 | < 5.70 | < 5.70 | Active | < 5.70 | < 5.70 | < 5.70 | < 5.70 | < 5.70 | clearance [2]: 33 mL/min/kg; half-life [6]: 0.8 h
CCCOCCn1c(=O)c(N[C@H]2CC[C@H](O)CC2)nc2cnc(-c3ccc(OC)nc3)cc21 | < 5.70 | < 5.70 | < 5.70 | < 5.70 | < 5.70 and 6.54 | 8.01 | < 5.70 | 7.19 | < 5.70 | < 5.70 | < 5.70 | Active | < 5.70 | < 5.70 | < 5.70 | < 5.70 | < 5.70 | bioavailability [20]: 50%; Vd [21]: 1.4 L/kg; Vd [22]: 3.7 L/kg; CL free [23]: 400 mL/min/kg; clearance [24]: 5.5 mL/min/kg; bioavailability [25]: 75%; clearance [26]: 3.5 mL/min/kg; half-life [27]: 17.6 h; half-life [28]: 4.1 h; pIC50 [29]: 5.92; Papp A→B [30]: 34 ×10⁻⁶ cm/s; Vdu [31]: 100 L/kg; pIC50 [32]: 10.30
